Laboratory results as given in patent US12156523B2 (priority 2017, dated 2024).

Columns and labels:
Assay type in all cases: in vivo
Pyricularia oryzae [1] = experiment: whole plant or invertebrate; conditions: soil, read-out: Control value (number of lesions at the second leaf)
Pyricularia oryzae [2] = experiment: whole plant or invertebrate; conditions: foliar, read-out: Control value (number of lesions at the second leaf)
rice (cultivar: Jikkoku) = experiment: Barrier to growth of rice (phytotoxicity, Example 18); conditions: untreated plant length set as 100; 0.2 mg/mL acetone solution diluted 10-fold, 0.25 mL per 1 mL of soil; first leaf stage; comparative compounds (Table 38)
Protocol: The acetone solutions of each example compound and compounds described in the prior art documents shown in the below-mentioned Table 38 (hereinafter, referred to as compounds of Comparative Examples 1 to 5, respectively) were prepared such that the content thereof became 0.2 mg/mL, and then diluted to 10-fold with water to be subjected to conducting test. 0.25 mL of the diluted solution per 1 mL of the soil was made to be absorbed in the soil. Then, rice seeds (cultivar: Jikkoku) subjected to forcing to germination were seeded in the soil to be cultivated in plant cultivation chambers. The plant length of the rice grown to the first leaf stage was measured, and the ratio of the plant length, relative to the untreated plant length set as 100, (hereinafter, referred to as “the ratio of plant length relative to untreated plant length”) was calculated. The presence or absence of the barrier to growth was determined from the calculated ratio.

[3] = test system: cucumber bacterial spot disease; experiment: Activity against cucumber bacterial spot disease (Example 17); conditions: cucumber cv. Natsusuzumi; wettable powder diluted 6666-fold, 20 mL per pot absorbed in the soil; 28 days after settled planting
Protocol: Wettable powders of the example compound 1-134 were prepared in accordance with the below-mentioned Preparation Example 1. The wettable powders were diluted to 6666-fold with water, and then 20 mL of the diluted solution per pot was applied to cucumber (cultivar: Natsusuzumi) cultivated to the third leaf stage in pots by making the diluted solution to be absorbed in the soil, and then the cucumber was subjected to settled planting. 28 days after the settled planting, the number of lesions formed at the 11th true leaves to the 20th true leaves were counted. The control value was calculated from the obtained number of lesions in accordance with the below-mentioned mathematical formula. Control value=((the number of lesions at untreated plants −the number of lesions at treated plants)/the number of lesions at untreated plants)×100

wheat brown rust = experiment: Activity against wheat brown rust (Example 14); conditions: wettable powder (Preparation Example 1) diluted 1000-fold, sprayed twice at 1 L/m^2, examined approx. 4 weeks after second spraying
Protocol: Wettable powders of the example compound 1-135 were prepared in accordance with the below-mentioned Preparation Example 1, followed by diluting the wettable powders to 1000-fold with water to prepare spraying liquids. The prepared spraying liquid was sprayed onto wheat twice at the blooming stage and 10 days prior to the blooming stage at a liquid volume of 1 L/m^2. The lesions on the flag leaf were examined in accordance with the below-mentioned indexes approximately 4 weeks after the second spraying application. The severity was calculated based on the indexes, and the control value was calculated from the obtained severity in accordance with the below-mentioned mathematical formula.
0: No lesions were observed.
1: 1 to 3 lesions were observed.
2: 4 to 10 lesions were observed.
3: 11 to 20 lesions were observed.
4: 21 or more lesions were observed, and the area of lesions was less than half of the leaf surface.
5: 21 or more lesions were confirmed, and the area of lesions was half or more of the leaf surface. Control value=((the severity at untreated plants −the severity at treated plants)/the severity at untreated plants)×100

SMILES: COc1cc(NC(=O)c2cc(F)nc(F)c2)cc(OC)c1 [Example 1-132]
- pest or weed control at 10 µg/mL (Pyricularia oryzae [1]): ≥ 80%
- pest or weed control at 200 ppm (Pyricularia oryzae [2]): ≥ 80%

SMILES: O=C(Nc1cc(Cl)c(Cl)c(Cl)c1)c1cc(F)nc(F)c1F [Example 1-19]
- pest or weed control at 10 µg/mL (Pyricularia oryzae [1]): ≥ 80%
- pest or weed control at 25 ppm (Pyricularia oryzae [2]): ≥ 80%

SMILES: CC(C)Oc1ccc(NC(=O)c2cc(F)nc(F)c2)cc1 [Example 1-137]
- pest or weed control at 10 µg/mL (Pyricularia oryzae [1]): ≥ 80%
- pest or weed control at 200 ppm (Pyricularia oryzae [2]): ≥ 80%

SMILES: CC(C)c1cccc(NC(=O)c2cc(F)nc(F)c2)c1 [Example 1-178]
- pest or weed control at 10 µg/mL (Pyricularia oryzae [1]): ≥ 80%
- pest or weed control at 200 ppm (Pyricularia oryzae [2]): ≥ 80%

SMILES: O=C(Nc1ccccc1[N+](=O)[O-])c1cc(F)nc(F)c1 [Example 1-173]
- pest or weed control at 10 µg/mL (Pyricularia oryzae [1]): ≥ 80%
- pest or weed control at 200 ppm (Pyricularia oryzae [2]): ≥ 80%

SMILES: CCCCc1ccc(NC(=O)c2cc(F)nc(F)c2)cc1 [Example 1-180]
- pest or weed control at 10 µg/mL (Pyricularia oryzae [1]): ≥ 80%
- pest or weed control at 200 ppm (Pyricularia oryzae [2]): ≥ 80%

SMILES: O=C(NCCc1ccccc1)c1cc(Cl)nc(Cl)c1 [Comparative Example 3]
- Ratio of plant length relative to untreated plant length (rice (cultivar: Jikkoku)): 45

SMILES: O=C(Nc1ccc(C(F)(F)F)cc1)c1cc(F)nc(F)c1 [Example 1-139]
- pest or weed control at 10 µg/mL (Pyricularia oryzae [1]): ≥ 80%
- pest or weed control at 25 ppm (Pyricularia oryzae [2]): ≥ 80%
- pest or weed control at 200 ppm (Pyricularia oryzae [2]): ≥ 80%

SMILES: Cc1ccc(NC(=O)c2cc(F)nc(F)c2)cc1 [Example 1-170]
- pest or weed control at 10 µg/mL (Pyricularia oryzae [1]): ≥ 80%
- pest or weed control at 200 ppm (Pyricularia oryzae [2]): ≥ 80%

SMILES: O=C(Nc1ccccc1)c1cc(F)nc(F)c1F [Example 1-98]
- pest or weed control at 10 µg/mL (Pyricularia oryzae [1]): ≥ 80%
- pest or weed control at 200 ppm (Pyricularia oryzae [2]): ≥ 80%

SMILES: CC(=O)c1cccc(NC(=O)c2cc(F)nc(F)c2)c1 [Example 1-190]
- pest or weed control at 10 µg/mL (Pyricularia oryzae [1]): ≥ 80%
- pest or weed control at 200 ppm (Pyricularia oryzae [2]): ≥ 80%

SMILES: O=C(OCc1ccccc1)c1cc(F)nc(F)c1 [Example 1-183]
- pest or weed control at 10 µg/mL (Pyricularia oryzae [1]): ≥ 80%
- pest or weed control at 200 ppm (Pyricularia oryzae [2]): ≥ 80%

SMILES: N#Cc1ccc(OC(=O)c2cc(F)nc(F)c2)cc1 [Example 1-204]
- pest or weed control at 10 µg/mL (Pyricularia oryzae [1]): ≥ 80%
- pest or weed control at 200 ppm (Pyricularia oryzae [2]): ≥ 80%

SMILES: CC(C)Oc1cccc(NC(=O)c2cc(F)nc(F)c2)c1 [Example 1-134]
- pest or weed control at 10 µg/mL (Pyricularia oryzae [1]): ≥ 80%
- pest or weed control at 25 ppm (Pyricularia oryzae [2]): ≥ 80%
- pest or weed control at 200 ppm (Pyricularia oryzae [2]): ≥ 80%
- Control value (number of lesions at 11th to 20th true leaves) [3]: ≥ 60

SMILES: CC(C)Oc1ccc(NC(=O)c2cc(F)nc(F)c2F)cc1 [Example 1-59]
- pest or weed control at 10 µg/mL (Pyricularia oryzae [1]): ≥ 80%
- pest or weed control at 25 ppm (Pyricularia oryzae [2]): ≥ 80%

SMILES: Cc1ccc(NC(=O)c2cc(F)nc(F)c2)cc1Cl [Example 1-133]
- pest or weed control at 10 µg/mL (Pyricularia oryzae [1]): ≥ 80%
- pest or weed control at 200 ppm (Pyricularia oryzae [2]): ≥ 80%

SMILES: O=C(Nc1ccc([N+](=O)[O-])cc1)c1cc(F)nc(F)c1 [Example 1-176]
- pest or weed control at 10 µg/mL (Pyricularia oryzae [1]): ≥ 80%
- pest or weed control at 200 ppm (Pyricularia oryzae [2]): ≥ 80%

SMILES: COc1ccccc1OC(=O)c1cc(F)nc(F)c1 [Example 1-210]
- pest or weed control at 10 µg/mL (Pyricularia oryzae [1]): ≥ 80%
- pest or weed control at 200 ppm (Pyricularia oryzae [2]): ≥ 80%

SMILES: COc1cccc(NC(=O)c2cc(F)nc(F)c2)c1 [Example 1-135]
- pest or weed control at 10 µg/mL (Pyricularia oryzae [1]): ≥ 80%
- pest or weed control at 25 ppm (Pyricularia oryzae [2]): ≥ 80%
- pest or weed control at 200 ppm (Pyricularia oryzae [2]): ≥ 80%
- Control value (severity on the flag leaf) (wheat brown rust): ≥ 50

SMILES: O=C(Nc1cccc(O)c1)c1cc(F)nc(F)c1 [Example 1-193]
- pest or weed control at 10 µg/mL (Pyricularia oryzae [1]): ≥ 80%
- pest or weed control at 200 ppm (Pyricularia oryzae [2]): ≥ 80%

SMILES: C#CCOC(=O)c1cc(Cl)nc(Cl)c1 [Comparative Example 2]
- Ratio of plant length relative to untreated plant length (rice (cultivar: Jikkoku)): 52

SMILES: O=C(Nc1cccc(Cl)c1)c1cc(F)nc(F)c1F [Example 1-32]
- pest or weed control at 10 µg/mL (Pyricularia oryzae [1]): ≥ 80%
- pest or weed control at 200 ppm (Pyricularia oryzae [2]): ≥ 80%

SMILES: O=C(OCc1ccc(Cl)nc1)c1cc(Cl)nc(Cl)c1 [Comparative Example 5]
- Ratio of plant length relative to untreated plant length (rice (cultivar: Jikkoku)): 66

SMILES: COC(=O)CNC(=O)c1cc(F)nc(F)c1F [Example 1-86]
- pest or weed control at 10 µg/mL (Pyricularia oryzae [1]): ≥ 80%
- pest or weed control at 200 ppm (Pyricularia oryzae [2]): ≥ 80%

SMILES: O=C(Nc1cccc([N+](=O)[O-])c1)c1cc(F)nc(F)c1 [Example 1-175]
- pest or weed control at 10 µg/mL (Pyricularia oryzae [1]): ≥ 80%
- pest or weed control at 200 ppm (Pyricularia oryzae [2]): ≥ 80%

SMILES: Cc1ccc(NC(=O)c2cc(F)nc(F)c2F)cc1Cl [Example 1-30]
- pest or weed control at 10 µg/mL (Pyricularia oryzae [1]): ≥ 80%
- pest or weed control at 25 ppm (Pyricularia oryzae [2]): ≥ 80%

SMILES: CCc1cccc(NC(=O)c2cc(F)nc(F)c2)c1 [Example 1-168]
- pest or weed control at 10 µg/mL (Pyricularia oryzae [1]): ≥ 80%
- pest or weed control at 25 ppm (Pyricularia oryzae [2]): ≥ 80%
- pest or weed control at 200 ppm (Pyricularia oryzae [2]): ≥ 80%

SMILES: Fc1cc(C2=NCCO2)cc(F)n1 [Example 4-4]
- pest or weed control at 10 µg/mL (Pyricularia oryzae [1]): ≥ 80%
- pest or weed control at 200 ppm (Pyricularia oryzae [2]): ≥ 80%

SMILES: O=C(Nc1nccs1)c1cc(F)nc(F)c1F [Example 1-18]
- pest or weed control at 10 µg/mL (Pyricularia oryzae [1]): ≥ 80%
- pest or weed control at 200 ppm (Pyricularia oryzae [2]): ≥ 80%

SMILES: O=C(Nc1ccc2c(c1)CCCC2)c1cc(F)nc(F)c1F [Example 1-3]
- pest or weed control at 10 µg/mL (Pyricularia oryzae [1]): ≥ 80%
- pest or weed control at 200 ppm (Pyricularia oryzae [2]): ≥ 80%

SMILES: O=C(COC(=O)c1cc(Cl)nc(Cl)c1)c1ccccc1 [Comparative Example 4]
- Ratio of plant length relative to untreated plant length (rice (cultivar: Jikkoku)): 64

SMILES: O=C(OCc1ccc(Cl)nc1)c1cc(F)nc(F)c1 [Example 1-174]
- pest or weed control at 10 µg/mL (Pyricularia oryzae [1]): ≥ 80%
- pest or weed control at 25 ppm (Pyricularia oryzae [2]): ≥ 80%
- pest or weed control at 200 ppm (Pyricularia oryzae [2]): ≥ 80%

SMILES: COc1cccc(NC(=O)c2cc(F)nc(F)c2F)c1 [Example 1-44]
- pest or weed control at 10 µg/mL (Pyricularia oryzae [1]): ≥ 80%
- pest or weed control at 25 ppm (Pyricularia oryzae [2]): ≥ 80%

SMILES: CC(C)c1ccc(NC(=O)c2cc(F)nc(F)c2)cc1 [Example 1-179]
- pest or weed control at 10 µg/mL (Pyricularia oryzae [1]): ≥ 80%
- pest or weed control at 200 ppm (Pyricularia oryzae [2]): ≥ 80%

SMILES: O=C(O)c1cc(Cl)nc(Cl)c1 [Comparative Example 1]
- Ratio of plant length relative to untreated plant length (rice (cultivar: Jikkoku)): 49

SMILES: CCc1ccccc1NC(=O)c1cc(F)nc(F)c1 [Example 1-169]
- pest or weed control at 10 µg/mL (Pyricularia oryzae [1]): ≥ 80%
- pest or weed control at 200 ppm (Pyricularia oryzae [2]): ≥ 80%
